According to patent US20230242530A1, “8-(AZETIDIN-1-YL)-[1,2,4]TRIAZOLO[1,5-A]PYRIDINYL COMPOUNDS, COMPOSITIONS AND METHODS OF USE THEREOF” (Genentech, Inc., priority 2016, published 2023):

Tests used:
[1] = biological target: T1, isolated recombinant JAK1 kinase domain (Homo sapiens, UniProt P23458); assay: JAK enzyme assay, JAK1 kinase domain (Caliper LabChip); assay type: biochemical; settings: 1.5 nM JAK1, ATP 25 μM, Morrison tight binding model
T1 construct: isolated recombinant JAK1 and JAK2 kinase domain
T1 sequence (P23458 875-1153 limits assumed): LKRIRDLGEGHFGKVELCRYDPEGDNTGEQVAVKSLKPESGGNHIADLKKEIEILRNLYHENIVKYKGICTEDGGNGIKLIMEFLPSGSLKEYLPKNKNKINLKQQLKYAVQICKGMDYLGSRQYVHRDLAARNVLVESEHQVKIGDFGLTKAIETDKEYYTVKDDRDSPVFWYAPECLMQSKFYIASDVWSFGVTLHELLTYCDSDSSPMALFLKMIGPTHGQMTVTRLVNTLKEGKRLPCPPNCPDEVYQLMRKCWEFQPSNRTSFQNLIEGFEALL
How it was run: (§1)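 Recombinant kinase domains phosphorylated a 5-carboxyfluorescein-labelled JAK3-derived peptide for 30 min at 22 °C, and the reaction was stopped with EDTA (50 mM final). Product fraction was measured by Caliper LabChip mobility shift. Ki came from Morrison tight-binding fits corrected for ATP competition (Ki=Ki,app/(1+[ATP]/Km,app)).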

[2] = test system: JAK1-dependent STAT6 phosphorylation downstream of IL-13 stimulation in BEAS-2B cells; assay: JAK1 pathway assay in cell lines: IL-13 p-STAT6 BEAS-2B; assay type: cell-based; settings: BEAS-2B human bronchial epithelial cells, 1 hr compound, IL-13 15 min, MSD readout
How it was run: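 BEAS-2B cells plated a day ahead in complete growth medium; compounds added 1 hr at 37 °C (0.2% DMSO final), then IL-13 at lot-specific EC90 for 15 min at 37 °C. Phospho-STAT6 in lysates measured by MSD; EC50 is 50% inhibition relative to DMSO control.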

[3] = biological target: T2, isolated recombinant JAK2 kinase domain (Homo sapiens, UniProt O60674); assay: JAK enzyme assay, JAK2 kinase domain (Caliper LabChip); assay type: biochemical; settings: 0.2 nM JAK2, ATP 25 μM, Morrison tight binding model
T2 construct: isolated recombinant JAK1 and JAK2 kinase domain
T2 sequence (O60674 849-1124 limits assumed): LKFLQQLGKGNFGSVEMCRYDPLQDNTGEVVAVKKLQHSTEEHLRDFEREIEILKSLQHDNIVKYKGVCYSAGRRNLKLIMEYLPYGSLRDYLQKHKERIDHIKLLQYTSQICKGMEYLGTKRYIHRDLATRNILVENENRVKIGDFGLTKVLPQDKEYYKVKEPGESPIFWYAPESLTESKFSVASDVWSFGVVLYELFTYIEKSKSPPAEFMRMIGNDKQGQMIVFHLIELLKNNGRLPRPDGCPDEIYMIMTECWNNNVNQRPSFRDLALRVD
How it was run: as §1

SMILES	Ki [1] [nM]	EC50 [2] [nM]	Ki [3] [nM]
CN1CCN(C(=O)Cn2cc(Nc3nc4c(N5CC(CC#N)(n6cc(C7CC7)cn6)C5)cccn4n3)cn2)CC1 [Example 43, 2-[3-(4-cyclopropylpyrazol-1-yl)-1-[2-[[1-[2-(4-methylpiperazin-1-yl)-2-oxo-ethyl]pyrazol-4-yl]amino]-[1,2,4]triazolo[1,5-a]pyridin-8-yl]azetidin-3-yl]acetonitrile]	0.6	48	4
CCc1cnn(C2(CC#N)CN(c3cccn4nc(Nc5ccc(C(=O)N6CCN(C7COC7)CC6)cc5)nc34)C2)c1 [Example 44, 2-[3-(4-ethylpyrazol-1-yl)-1-[2-[4-[4-(oxetan-3-yl)piperazine-1-carbonyl]anilino]-[1,2,4]triazolo[1,5-a]pyridin-8-yl]azetidin-3-yl]acetonitrile]	2.2	648	29.5
CCc1cnn(C2(CC#N)CN(c3cccn4nc(Nc5cnn(CC(=O)N6CCC(N(C)CC7(C#N)CC7)CC6)c5)nc34)C2)c1 [Example 45, 1-[[[1-[2-[4-[[8-[3-(cyanomethyl)-3-(4-ethylpyrazol-1-yl)azetidin-1-yl]-[1,2,4]triazolo[1,5-a]pyridin-2-yl]amino]pyrazol-1-yl]acetyl]-4-piperidyl]-methyl-amino]methyl]cyclopropane carbonitrile]	0.3	21	0.8
CCc1cnn(C2(CC#N)CN(c3cccn4nc(Nc5cnn(CC(=O)N6CCN(CCOC)CC6)c5)nc34)C2)c1 [Example 46, 2-[3-(4-ethylpyrazol-1-yl)-1-[2-[[1-[2-[4-(2-methoxyethyl)piperazin-1-yl]-2-oxo-ethyl]pyrazol-4-yl]amino]-[1,2,4]triazolo[1,5-a]pyridin-8-yl]azetidin-3-yl]acetonitrile]	0.2	7	0.2
CCc1cnn(C2(CC#N)CN(c3cccn4nc(Nc5cnn(CC(=O)N6CCC(CN7CCN(C)CC7)CC6)c5)nc34)C2)c1 [Example 47]	0.4	11	0.2
CN1CCN(C(=O)Cn2cc(Nc3nc4c(N5CC(CC#N)(n6cc(CNCC(F)(F)F)cn6)C5)cccn4n3)cn2)CC1 [Example 48]	0.5	33	1.5
CN1CCN(C(=O)Cn2cc(Nc3nc4c(N5CC(CC#N)(n6cc(C7CCCC7)cn6)C5)cccn4n3)cn2)CC1 [Example 49, 2-[3-(4-cyclopentylpyrazol-1-yl)-1-[2-[[1-[2-(4-methylpiperazin-1-yl)-2-oxo-ethyl]pyrazol-4-yl]amino]-[1,2,4]triazolo[1,5-a]pyridin-8-yl]azetidin-3-yl]acetonitrile]	0.6	30	2.4
CCc1cnn(C2(CC#N)CN(c3cccn4nc(Nc5ccc6c(c5)CCN(C)C6)nc34)C2)c1 [Example 50, 2-[3-(4-ethylpyrazol-1-yl)-1-[2-[(2-methyl-3,4-dihydro-1H-isoquinolin-6-yl)amino]-[1,2,4]triazolo[1,5-a]pyridin-8-yl]azetidin-3-yl]acetonitrile]	1.8	65	2
CCc1cnn(C2(CC#N)CN(c3cccn4nc(Nc5ccc6c(c5)CCN(C5COC5)C6)nc34)C2)c1 [Example 51, 2-[3-(4-ethylpyrazol-1-yl)-1-[2-[[2-(oxetan-3-yl)-3,4-dihydro-1H-isoquinolin-6-yl]amino]-[1,2,4]triazolo[1,5-a]pyridin-8-yl]azetidin-3-yl]acetonitrile]	0.3	44	1.6
CCc1cnn(C2(CC#N)CN(c3cccn4nc(Nc5cnn(CC(=O)N6CCC(N(C)CC(C)(C)C#N)CC6)c5)nc34)C2)c1 [Example 52, 3-[[1-[2-[4-[[8-[3-(cyanomethyl)-3-(4-ethylpyrazol-1-yl)azetidin-1-yl]-[1,2,4]triazolo[1,5-a]pyridin-2-yl]amino]pyrazol-1-yl]acetyl]-4-piperidyl]-methyl-amino]-2,2-dimethyl-propanenitrile]	0.2	13	0.5
CCc1cnn(C2(CC#N)CN(c3cccn4nc(Nc5cnn(CC(=O)N6CCC(CN7CCOCC7)CC6)c5)nc34)C2)c1 [Example 53, 2-[3-(4-ethylpyrazol-1-yl)-1-[2-[[1-[2-[4-(morpholinomethyl)-1-piperidyl]-2-oxo-ethyl]pyrazol-4-yl]amino]-[1,2,4]triazolo[1,5-a]pyridin-8-yl]azetidin-3-yl]acetonitrile]	0.9	31	0.6
CCc1cnn(C2(C(C)C#N)CN(c3cccn4nc(Nc5cnn(CC(=O)N6CCN(C)CC6)c5)nc34)C2)c1 (stereo not drawn) [Example 54, 2-[3-(4-ethylpyrazol-1-yl)-1-[2-[[1-[2-(4-methylpiperazin-1-yl)-2-oxo-ethyl]pyrazol-4-yl]amino]-[1,2,4]triazolo[1,5-a]pyridin-8-yl]azetidin-3-yl]propanenitrile]	1	231	2.8
CN1CCN(C(=O)Cn2cc(Nc3nc4c(N5CC(CC#N)(n6cc(C7CCCCC7)cn6)C5)cccn4n3)cn2)CC1 [Example 55]	1	137	5.7
CC(C)c1cnn(C2(CC#N)CN(c3cccn4nc(Nc5cnn(CC(=O)N6CCN(C)CC6)c5)nc34)C2)c1 [Example 56, formic acid;2-[3-(4-isopropyipyrazol-1-yl)-1-[2-[[1-[2-(4-methylpiperazin-1-yl)-2-oxo-ethyl]pyrazol-4-yl]amino]-[1,2,4]triazolo[1,5-a]pyridin-8-yl]azetidin-3-yl]acetonitrile]	2.3	319	10.5
CCc1cnn(C2(CC#N)CN(c3cccn4nc(Nc5ccc6c(c5)CCN(C5CCOCC5)C6)nc34)C2)c1 [Example 57, 2-[3-(4-ethylpyrazol-1-yl)-1-[2-[(2-tetrahydropyran-4-yl-3,4-dihydro-1H-isoquinolin-6-yl)amino]-[1,2,4]triazolo[1,5-a]pyridin-8-yl]azetidin-3-yl]acetonitrile]	0.3	12	1.3
CCc1cnn(C2(CC#N)CN(c3cccn4nc(Nc5cnn(CC(=O)N6CCN(CCNC(=O)CC78CC9CC(CC(C9)C7)C8)CC6)c5)nc34)C2)c1 [Example 58, 2-(l-adamantyl)-N-[2-[4-[2-[4-[[8-[3-(cyanomethyl)-3-(4-ethylpyrazol-1-yl)azetidin-1-yl]-[1,2,4]triazolo[1,5-a]pyridin-2-yl]amino]pyrazol-1-yl]acetyl]piperazin-1-yl]ethyl]acetamide]	0.4	13	0.3
CN1CCN(C(=O)Cn2cc(Nc3nc4c(N5CC(CC#N)(n6cc(CCc7ccccc7)cn6)C5)cccn4n3)cn2)CC1 [Example 59, 2-[1-[2-[[1-[2-(4-methylpiperazin-1-yl)-2-oxo-ethyl]pyrazol-4-yl]amino]-[1,2,4]triazolo[1,5-a]pyridin-8-yl]-3-[4-(2-phenylethyl)pyrazol-1-yl]azetidin-3-yl]acetonitrile]	0.2	8	0.2
CCc1ccc(C2(CC#N)CN(c3cccn4nc(Nc5cnn(CC(=O)N6CCN(C)CC6)c5)nc34)C2)cc1 [Example 60, 2-[3-(4-ethylphenyl)-1-[2-[[1-[2-(4-methylpiperazin-1-yl)-2-oxo-ethyl]pyrazol-4-yl]amino]-[1,2,4]triazolo[1,5-a]pyridin-8-yl]azetidin-3-yl]acetonitrile]	0.4	19	2.9
